In patent US20100113570A1, “PREVENTION AND TREATMENT OF POST-OPERATIVE COGNITIVE DYSFUNCTION” (The General Hospital Corporation, priority 2008, published 2010):

Columns and labels:
H4-APP cells [1] = assay: Caspase-3 activation by Western blot (ratio of caspase-3 fragment to FL-caspase-3) in H4-APP cells; assay type: cell-based, human
Protocol: (§1) Cell lines. We used naive H4 human neuroglioma cells stably transfected to express full-length APP (FL-APP; H4-APP cells) in the studies. The cells were cultured in DMEM (high glucose) containing 9% heat inactivated fetal calf serum, 100 U/ml penicillin, 100 μg/ml streptomycin, 2 mM L-glutamine, and 200 μg/ml G418.
(§2) Cell treatment. Twenty-one percent O2, 5% CO2, and 2% isoflurane were delivered from an anesthesia machine to a sealed plastic box in a 37° Celsius incubator containing six-well plates seeded with one million cells in 1.5 ml of cell culture media as described in our previous studies (Xie et al., 2006a,b, 2007). Date infrared gas analyzer (Puritan-Bennett, Tewksbury, Mass.) was used to continuously monitor the delivered CO2, O2, and isoflurane concentrations. We treated the cells with 2% isoflurane for 6 h, during which time the cells were incubated in serum-free media. In the interaction studies, the cells were treated with memantine (4 μM) 1 h before the treatment of 2% isoflurane. Low-calcium condition was created by using a calcium-free cell culture media (Invitrogen, Carlsbad, Calif.) and by adding EDTA (10 mM; Sigma-Aldrich, St. Louis, Mo.), a chelating compound (Rekasi et al., 2005), or BAPTA (10 μM; Sigma-Aldrich), an intracellular calcium chelator, to the media. […] These siRNAs and control siRNAs (3′[…]) were obtained from Dharmacon (Lafayette, Colo.). siRNAs were transfected into cells by using electroporation (Amaxa Biosystems, Gaithersburg, Md.) as described by Xie et al. (2005b). Briefly, we mixed 1 million cells, 100 μl of AMAXA electroporation transfection solution, and 10 μl of 20 μM siRNA together and then used the C-9 program in an AMAXA electroporation device for cell transfection. The transfected cells were then placed in one of the six-well plates containing 1.5 ml of cell culture media. The pretreated cells were then exposed to the isoflurane treatment.
Cell lysis and protein amount quantification. Cell pellets were detergent-extracted on ice using immunoprecipitation buffer (10 mM Tris-HCl, pH 7.4, 150 mM NaCl, 2 mM EDTA, 0.5% Nonidet P-40) plus protease inhibitors (1 μg/ml aprotinin, 1 μg/ml leupeptin, 1 μg/ml pepstatin A). The lysates were collected, centrifuged at 12,000 rpm for 10 min, and quantified for total proteins by a BCA protein assay kit (Pierce Technology Corporation, Iselin, N.J.).
Western blot analysis. The harvested cells and brain tissues were subjected to Western blots as described by Xie et al. (2005a). A caspase-3 antibody (1:1000 dilution; Cell Signaling Technology, Beverly, Mass.) was used to recognize caspase-3 fragment (17-20 kDa) resulting from cleavage at asparate position 175 and FL-caspase-3 (35-40 kDa). Caspase-3 cleavage (activation) is based on the ratio of caspase-3 fragment to FL caspase-3. Antibody anti-b-actin was used to visualize b-actin (42 kDa). Antibodies for IP3 receptor (1:1000; Millipore Bioscience Research Reagents, Temecula, Calif.), NR1 (1:1000; PhosphoSolutions, Aurora, Colo.), and SERCA1 (1:1000; Abcam, Cambridge, Mass.) were used to recognize IP3 receptor (250 kDa), NR1 (120 kDa), and SERCA1 (110 kDa). The quantitation of Western blots was performed as described by Xie et al. (2005a). Briefly, the intensity of signals was analyzed by using a Bio-Rad (Hercules, Calif.) image program (Quantity One) and an NIH Image version 1.37v. We quantified the Western blots using two steps.

MTT cell viability assay = assay type: cell-based, human; conditions: human, MTT
Protocol: as §1, §2

H4-APP cells [2] = assay: Cell apoptosis assay (cell death detection ELISA); assay type: cell-based, human
Protocol: as §1, §2

H4-APP cells [3] = assay: Cytosolic calcium measurement (Fura-2 ratio); assay type: cell-based, human
Protocol: Cytosolic calcium measurement. Cytosolic calcium levels were determined as described by Wei et al. (2008). Specifically, H4-APP cells were loaded with Fura-2 (Invitrogen), perfused with Tyrode buffer, and [Ca2+]i transients were recorded as changes in Fura-2 ratio (340/380 nm) using a spectrofluoroscope system (Ionoptix, Milton, Mass.).

caspase-3 = assay: Caspase-3 activation in brain tissue of naive mice (Western blot); assay type: in vivo
Protocol: Mice treatment. The animal protocol was approved by the Massachusetts General Hospital Standing Committee on Animals Sixteen female C57BL/6 mice (5-6 months of age) (The Jackson Laboratory, Bar Harbor, Me.) were randomly assigned to an anesthesia or control group. […] This isoflurane treatment allows the mice to have sufficient exposure to isoflurane while avoiding excessive accumulation of CO2. The control mice (n=8) received 100% oxygen at an identical flow rate for 6 h and 20 min in an identical chamber. The mice breathed spontaneously, and anesthetic and oxygen concentrations were measured continuously (Datex, Puritan-Bennett; Ohmeda PPD, Madison, Wis.). Rectal temperature was measured intermittently, and the temperature of the anesthetizing chamber was controlled to maintain rectal temperature of the animals at 37±0.5° C. Mean arterial blood pressure was measured noninvasive using a tail cuff (CODA2 system; Kent Scientific Corporation, Torrington, Conn.) in the anesthetized mice. […] Mice were killed by decapitation at the end of the experiments, the brain was removed rapidly, and the prefrontal cortex was dissected out and frozen in liquid nitrogen for subsequent processing for the determination of caspase-3activation. […] Brain tissue lysis and protein amount quantification. […] The lysates were collected, centrifuged at 12,000 rpm for 10 min, and quantified for total proteins by a BCA protein assay kit (Pierce Technology Corporation). Western blot analysis. The harvested cells and brain tissues were subjected to Western blots as described by Xie et al. (2005a). […] Caspase-3 cleavage (activation) is based on the ratio of caspase-3 fragment to FL caspase-3. Antibody anti-b-actin was used to visualize b-actin (42 kDa). […] The quantitation of Western blots was performed as described by Xie et al. (2005a). Briefly, the intensity of signals was analyzed by using a Bio-Rad (Hercules, Calif.) image program (Quantity One) and an NIH Image version 1.37v. We quantified the Western blots using two steps. […] Data were expressed as mean±SD. […]

[4] = Blood pressure and blood gas of anesthetized mice; assay type: in vivo; conditions: 1.4% isoflurane for 2 h; data not shown
Protocol: Mice treatment. The animal protocol was approved by the Massachusetts General Hospital Standing Committee on Animals Sixteen female C57BL/6 mice (5-6 months of age) (The Jackson Laboratory, Bar Harbor, Me.) were randomly assigned to an anesthesia or control group. […] This isoflurane treatment allows the mice to have sufficient exposure to isoflurane while avoiding excessive accumulation of CO2. The control mice (n=8) received 100% oxygen at an identical flow rate for 6 h and 20 min in an identical chamber. The mice breathed spontaneously, and anesthetic and oxygen concentrations were measured continuously (Datex, Puritan-Bennett; Ohmeda PPD, Madison, Wis.). Rectal temperature was measured intermittently, and the temperature of the anesthetizing chamber was controlled to maintain rectal temperature of the animals at 37±0.5° C. Mean arterial blood pressure was measured noninvasive using a tail cuff (CODA2 system; Kent Scientific Corporation, Torrington, Conn.) in the anesthetized mice. […] Mice were killed by decapitation at the end of the experiments, the brain was removed rapidly, and the prefrontal cortex was dissected out and frozen in liquid nitrogen for subsequent processing for the determination of caspase-3activation.

H4-APP cells [5] = assay: MTT cell viability assay; assay type: cell-based, human
Protocol: as §1, §2

[6] = isoflurane plus control siRNA, control = 100%
[7] = memantine 4 μM alone vs control conditions

FC(F)OC(Cl)C(F)(F)F (centres unmarked) [isoflurane]
caspase-3 activation compared with control conditions (H4-APP cells [1]; 2% isoflurane for 6 h alone, H4-APP cells, control = 100%): 184% | caspase-3 activation, isoflurane plus DMSO (BAPTA experiment) (H4-APP cells [1]; 2% isoflurane for 6 h plus DMSO, control = 100%): 185% | caspase-3 activation, isoflurane plus control siRNA (NR1 experiment) (H4-APP cells [1]; 2% isoflurane for 6 h plus control siRNA, control = 100%): 168% | caspase-3 activation, isoflurane plus control siRNA (IP3 receptor experiment) (H4-APP cells [1]; [6]): 292% | caspase-3 activation, isoflurane plus control siRNA (SERCA1 experiment) (H4-APP cells [1]; [6]): 194% | viability at 6 h, 2 % (MTT cell viability assay; 2% isoflurane for 6 h, percent of control, read-out: cell viability, isoflurane alone): 74% | cytotoxicity at 6 h, 2 % (MTT cell viability assay; 2% isoflurane for 6 h vs control conditions, read-out: reduction in cell viability): 26% | cell apoptosis compared with control conditions (H4-APP cells [2]; 2% isoflurane for 6 h alone, control = 100%): 137% | cytosolic calcium levels, isoflurane (H4-APP cells [3]; isoflurane 1 mM or 3.5%): can elevate cytosolic calcium levels | caspase-3 activation in mouse brain compared with control condition (caspase-3; three sessions of 1.4% isoflurane for 2 h, prefrontal cortex, control = 100%): 177% | effect on blood pressure and venous blood gas [4]: did not significantly affect blood pressure and venous blood gas

O=C(O)CN(CCN(CC(=O)O)CC(=O)O)CC(=O)O [EDTA, ethylenediaminetetraacetic acid]
reduction in caspase-3 activation compared with isoflurane plus normal calcium (H4-APP cells [1]; isoflurane plus low calcium and EDTA (10 mM), H4-APP cells): 68%

CC12CC3CC(C)(C1)CC(N)(C3)C2 [memantine]
caspase-3 activation, memantine plus isoflurane (H4-APP cells [1]; memantine 4 μM 1 h before 2% isoflurane for 6 h, H4-APP cells, control = 100%): 101% | caspase-3 activation, memantine alone (H4-APP cells [1]; memantine 4 μM alone vs control conditions, H4-APP cells): did not induce caspase-3 activation | cell viability, memantine alone (H4-APP cells [5]; [7]): had no effects on either cell viability or apoptosis | cell viability, memantine plus isoflurane (H4-APP cells [5]; memantine 4 μM plus 2% isoflurane for 6 h, percent of control, MTT): 95% | cell apoptosis, memantine alone (H4-APP cells [2]; [7]): had no effects on either cell viability or apoptosis | cell apoptosis, memantine plus isoflurane (H4-APP cells [2]; memantine 4 μM plus 2% isoflurane for 6 h, control = 100%): 99% | isoflurane-induced elevation in cytosolic calcium levels, memantine pretreatment (H4-APP cells [3]; pretreated with memantine 4 μM, then isoflurane 1 mM or 3.5%): isoflurane failed to increase cytosolic calcium levels | caspase-3 activation in mouse brain, memantine plus isoflurane (caspase-3; memantine 20 mg/kg i.p. 1 h before three sessions of 1.4% isoflurane for 2 h, control = 100%): 97% | caspase-3 activation in mouse brain, memantine alone (caspase-3; memantine 20 mg/kg intraperitoneal alone vs control condition): did not induce caspase-3 activation

O=C(O)CN(CC(=O)O)c1ccccc1OCCOc1ccccc1N(CC(=O)O)CC(=O)O [BAPTA, 1,2-bis (o-aminophenoxy)ethane-N,N,N′,N′-tetraacetic acid]
caspase-3 activation, BAPTA plus isoflurane (H4-APP cells [1]; BAPTA 10 μM plus 2% isoflurane for 6 h, control = 100%): 154% | caspase-3 activation, BAPTA alone (H4-APP cells [1]; BAPTA plus control condition vs DMSO plus control condition): does not induce caspase-3 activation
